Measured values reported in ChEMBL document CHEMBL3739375, “Identifying farnesoid X receptor agonists by naive Bayesian and recursive partitioning approaches” (Medchemcomm, 2015).

Tests used:
[1] = biological target: T1, Bile acid receptor (Homo sapiens) (UniProt Q96RI1); experiment: (§1) Agonist activity at human farnesoid-X-receptor expressed in HEK293T cells co-expressing human RXRalpha assessed as receptor activation after 20 hrs by dual luciferase reporter assay; format: cell-based; settings: HEK-293T
T1 sequence (whole entry): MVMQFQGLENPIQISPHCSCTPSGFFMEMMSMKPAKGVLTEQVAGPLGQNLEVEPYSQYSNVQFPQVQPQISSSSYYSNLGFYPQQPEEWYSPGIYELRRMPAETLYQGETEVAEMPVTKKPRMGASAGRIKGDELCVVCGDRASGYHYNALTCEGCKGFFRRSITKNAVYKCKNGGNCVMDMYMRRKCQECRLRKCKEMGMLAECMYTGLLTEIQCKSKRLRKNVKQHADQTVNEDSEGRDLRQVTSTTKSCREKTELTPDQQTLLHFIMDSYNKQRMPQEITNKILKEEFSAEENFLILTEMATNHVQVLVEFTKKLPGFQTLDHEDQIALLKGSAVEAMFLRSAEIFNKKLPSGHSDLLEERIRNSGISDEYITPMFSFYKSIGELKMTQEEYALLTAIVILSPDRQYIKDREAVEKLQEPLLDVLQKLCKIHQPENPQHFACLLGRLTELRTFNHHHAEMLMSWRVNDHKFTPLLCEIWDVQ

Bile acid receptor = biological target: T2, Bile acid receptor (Homo sapiens, UniProt Q96RI1); experiment: as §1; format: cell-based, HEK-293T
T2 sequence (Q96RI1 whole entry): T1 sequence (whole entry)

Structure (SMILES): CC(C)(C)OC(=O)/N=C(\NCCCc1cc(C(=O)NCc2ccncc2)no1)NC(=O)OC(C)(C)C
- Activity [1]: Dose-dependent effect
- EC50 (Bile acid receptor): 15.4 µM

Structure (SMILES): CC(C)(C)OC(=O)/N=C(/NCCc1cc(NC(=O)Nc2ccncc2)no1)NC(=O)OC(C)(C)C
- Activity [1]: Dose-dependent effect
- EC50 (Bile acid receptor): 29.9 µM
